Patent US4760088A, “Biocidal derivatives of catechins” (Board of Control of Michigan Technological University, priority 1986, dated 1988)
In brackets after ≈: the same amount, converted by molar mass. Like-named read-outs stand apart in the source and are kept apart here.

Legend:
Assay type in all cases: cell-based
[1] = system: fungi; assay: Fungicidal effect against a variety of fungi (overall statement); settings: at the concentrations tested
Method: (§1) Tests were made to determine the biocidal properties of the epicatechin-4-alkylsulfides prepared in Examples 1 and 2 on different wood-rotting fungi and bacteria.
(§2) Agar plates containing the epicatechin-4-alkylsulfide to be tested were prepared by adding one part of an ethanol solution containing a known concentration of the test compound to 99 parts of molten malt extract agar. After thorough mixing, the medium was poured into 8 cm petri dishes. When the agar had cooled and hardened, the plates were inoculated by placing in the center of the plate a 5 mm diameter plug taken from an agar plate containing an actively growing culture of the test organism and incubated at 26° C. The diameter of the mycelium formed was measured when the culture on a control plate (containing no test compound) had reached the perimeter of the petri dish, or after seven days, whichever came first. Three duplicates were run for each test compound/test organism combination.

[2] = system: gram-positive bacteria; assay: Effect against gram-positive bacteria compared with streptomycin (overall statement); settings: versus streptomycin under the same conditions
Method: as §1
(§3) Agar plates containing the test compounds were made as above, but with brain-heart infusion agar. The plates were inoculated with a standardized suspension of bacterial cells using a calibrated 3 mm loop and incubated at 35° C. After one day (two days for Micrococcus luteus), the number of resulting bacteria cultures were counted. Streptomycin was used under the same conditions on each test organism for a comparison.

[3] = system: Micrococcus liteus; assay: Biocidal effect on bacteria, gram-positive (agar plate); settings: 48 h, read-out: Minimum Inhibitory Concentration (MIC)
Method: as §1, §3

[4] = system: Bacillus cereus; assay: as above; settings: 24 h, read-out: Minimum Inhibitory Concentration (MIC)
Method: as §1, §3

[5] = system: Streptococcus faciens; assay: as above; settings: 24 h, read-out: Minimum Inhibitory Concentration (MIC)
Method: as §1, §3

[6] = system: Coriolus versicolor; assay: Biocidal effect on wood-destroying fungi, white-rotters (agar plate mycelium growth); settings: Trametes versicolor; no growth observed; malt extract agar, 26° C.; max. tested 1000 ppm; read-out: Minimum Inhibitory Concentration (MIC)
Method: as §1, §2

[7] = system: Phanerochaete chrysosporium; assay: as above; settings: Phanerodontia chrysosporium; no growth observed; malt extract agar, 26° C.; max. tested 1000 ppm; read-out: Minimum Inhibitory Concentration (MIC)
Method: as §1, §2

[8] = system: Lecythophora hoffmannii; assay: Biocidal effect on wood-destroying fungi, soft-rotters (agar plate mycelium growth); settings: Coniochaeta hoffmannii; no growth observed; malt extract agar, 26° C.; max. tested 1000 ppm; read-out: Minimum Inhibitory Concentration (MIC)
Method: as §1, §2

[9] = system: Scytalidium lignicola; assay: as above; settings: no growth observed, malt extract agar, 26° C., max. tested 1000 ppm, read-out: Minimum Inhibitory Concentration (MIC)
Method: as §1, §2

[10] = system: Poria placenta; assay: Biocidal effect on wood-destroying fungi, brown-rotters (agar plate mycelium growth); settings: no growth observed; malt extract agar, 26° C.; max. tested 1000 ppm; read-out: Minimum Inhibitory Concentration (MIC)
Method: as §1, §2

[11] = system: Geophyllum trabeum; assay: as above; settings: no growth observed; malt extract agar, 26° C.; max. tested 1000 ppm; read-out: Minimum Inhibitory Concentration (MIC)
Method: as §1, §2

[12] = system: Klebsiella pneumoneae; assay: Biocidal effect on bacteria, gram-negative (agar plate); settings: 24 h, read-out: Minimum Inhibitory Concentration (MIC)
Method: as §1, §3

[13] = system: Escherchia coli; assay: as above; settings: 24 h; no colonies observed; brain-heart infusion agar, 35° C., one day; max. tested 500 ppm; read-out: Minimum Inhibitory Concentration (MIC)
Method: as §1, §3

[14] = system: Pseudomonas aeruginosa; assay: as above; settings: 24 h, read-out: Minimum Inhibitory Concentration (MIC)
Method: as §1, §3

[15] = system: Enterobacter cloacae; assay: as above; settings: 24 h, read-out: Minimum Inhibitory Concentration (MIC)
Method: as §1, §3

[16] = system: Pycnoporus cinnabarinus; assay: Biocidal effect on wood-destroying fungi, white-rotters (agar plate mycelium growth); settings: Trametes cinnabarina; no growth observed; malt extract agar, 26° C.; max. tested 1000 ppm; read-out: Minimum Inhibitory Concentration (MIC)
Method: as §1, §2

[17] = system: Chaetomium globosom; assay: Biocidal effect on wood-destroying fungi, soft-rotters (agar plate mycelium growth); settings: no growth observed, malt extract agar, 26° C., max. tested 1000 ppm, read-out: Minimum Inhibitory Concentration (MIC)
Method: as §1, §2

[18] = system: Wolfiporia cocos; assay: Biocidal effect on wood-destroying fungi, brown-rotters (agar plate mycelium growth); settings: no growth observed, malt extract agar, 26° C., max. tested 1000 ppm, read-out: Minimum Inhibitory Concentration (MIC)
Method: as §1, §2

[19] = system: bacteria; assay: Bactericidal effect (overall statement); settings: at the concentrations tested
Method: as §1, §3

[20] = no colonies observed, brain-heart infusion agar, 35° C., two days, max. tested 500 ppm
[21] = no colonies observed, brain-heart infusion agar, 35° C., one day, max. tested 500 ppm

CCCCCCCCCCSC1c2c(O)cc(O)cc2OC(c2ccc(O)c(O)c2)C1O (stereo not shown) [C10]
fungicidal properties [1]: effective fungicide | effectiveness against gram-positive bacteria compared with streptomycin [2]: substantially more effective | MIC [3, 20]: 5 µg/mL (≈ 10.8 µM) | MIC [4, 21]: 5 µg/mL (≈ 10.8 µM) | MIC [5, 21]: 30 µg/mL (≈ 64.8 µM) | MIC [6]: 200 µg/mL | MIC [7]: 50 µg/mL | MIC [8]: 300 µg/mL | MIC [9]: 8 µg/mL | MIC [10]: 1000 µg/mL | MIC [11]: 1000 µg/mL | MIC [12, 21]: 500 µg/mL (≈ 1080 µM) | MIC [13]: 500 µg/mL (≈ 1080 µM) | MIC [14, 21]: 300 µg/mL (≈ 648 µM) | MIC [15, 21]: 500 µg/mL (≈ 1080 µM)

CCCCCCSC1c2c(O)cc(O)cc2OC(c2ccc(O)c(O)c2)C1O (stereo not shown) [C6]
MIC [3, 20]: 50 µg/mL (≈ 123 µM) | MIC [4, 21]: 80 µg/mL (≈ 197 µM) | MIC [5, 21]: 200 µg/mL (≈ 492 µM) | MIC [6]: 800 µg/mL | MIC [16]: 500 µg/mL | MIC [7]: 250 µg/mL | MIC [8]: 800 µg/mL | MIC [17]: 500 µg/mL | MIC [9]: 80 µg/mL | MIC [10]: 500 µg/mL | MIC [18]: 500 µg/mL | MIC [11]: 1000 µg/mL | MIC [12, 21]: 500 µg/mL (≈ 1230 µM) | MIC [13]: 300 µg/mL (≈ 738 µM) | MIC [14, 21]: 500 µg/mL (≈ 1230 µM) | MIC [15, 21]: 300 µg/mL (≈ 738 µM)

Oc1cc(O)c2c(c1)O[C@H](c1ccc(O)c(O)c1)[C@H](O)C2 [Epicatechin, reference compound]
fungicidal properties [1]: no fungicidal | bactericidal properties [19]: minimal bactericidal properties

CCCCCCCCCCCCCCCCSC1c2c(O)cc(O)cc2OC(c2ccc(O)c(O)c2)C1O (stereo not shown) [C16]
MIC [3, 20]: 75 µg/mL (≈ 137 µM) | MIC [4, 21]: 75 µg/mL (≈ 137 µM) | MIC [5, 21]: 100 µg/mL (≈ 183 µM) | MIC [6]: 1000 µg/mL | MIC [7]: 1000 µg/mL | MIC [8]: 1000 µg/mL | MIC [9]: 200 µg/mL | MIC [10]: 1000 µg/mL | MIC [11]: 1000 µg/mL | MIC [12, 21]: 500 µg/mL (≈ 914 µM) | MIC [13]: 500 µg/mL (≈ 914 µM) | MIC [14, 21]: 50 µg/mL (≈ 91.4 µM) | MIC [15, 21]: 500 µg/mL (≈ 914 µM)

CCCCCCCCCCCCSC1c2c(O)cc(O)cc2OC(c2ccc(O)c(O)c2)C1O (stereo not shown) [C12]
MIC [3, 20]: 50 µg/mL (≈ 102 µM) | MIC [4, 21]: 50 µg/mL (≈ 102 µM) | MIC [5, 21]: 75 µg/mL (≈ 153 µM) | MIC [6]: 1000 µg/mL | MIC [16]: 1000 µg/mL | MIC [7]: 1000 µg/mL | MIC [8]: 1000 µg/mL | MIC [17]: 1000 µg/mL | MIC [9]: 100 µg/mL | MIC [10]: 1000 µg/mL | MIC [18]: 1000 µg/mL | MIC [11]: 1000 µg/mL | MIC [12, 21]: 500 µg/mL (≈ 1020 µM) | MIC [13]: 500 µg/mL (≈ 1020 µM)

[H]/N=C(/N)N[C@H]1[C@H](O)[C@@H](O)[C@H](O[C@@H]2O[C@@H](C)[C@](O)(C=O)[C@H]2O[C@@H]2O[C@@H](CO)[C@H](O)[C@@H](O)[C@@H]2NC)[C@@H](N/C(N)=N\[H])[C@@H]1O [Strep, Streptomycin, reference compound]
MIC [3]: 8 µg/mL (≈ 13.8 µM) | MIC [4]: 20 µg/mL (≈ 34.4 µM) | MIC [5]: 50 µg/mL (≈ 86 µM) | MIC [12]: 8 µg/mL (≈ 13.8 µM) | MIC [13]: 5 µg/mL (≈ 8.6 µM) | MIC [14]: 50 µg/mL (≈ 86 µM) | MIC [15]: 1 µg/mL (≈ 1.72 µM)

CCCCCCCCSC1c2c(O)cc(O)cc2OC(c2ccc(O)c(O)c2)C1O (stereo not shown) [C8]
fungicidal properties [1]: effective fungicide | MIC [3, 20]: 40 µg/mL (≈ 92 µM) | MIC [4, 21]: 20 µg/mL (≈ 46 µM) | MIC [5, 21]: 60 µg/mL (≈ 138 µM) | MIC [6]: 250 µg/mL | MIC [16]: 1000 µg/mL | MIC [7]: 100 µg/mL | MIC [8]: 400 µg/mL | MIC [17]: 1000 µg/mL | MIC [9]: 25 µg/mL | MIC [10]: 250 µg/mL | MIC [18]: 1000 µg/mL | MIC [11]: 1000 µg/mL | MIC [12, 21]: 500 µg/mL (≈ 1150 µM) | MIC [13]: 500 µg/mL (≈ 1150 µM)
